Laboratory results as given in ChEMBL document CHEMBL4270495, “Oleanane-, ursane-, and quinone methide friedelane-type triterpenoid derivatives: Recent advances in cancer treatment” (Eur J Med Chem, 2017).

How the values were obtained:
MDA-MB-231 = assay: Cytotoxicity in human MDA-MB-231 cells assessed as reduction in cell viability incubated for 24 hrs by MTT assay; format: functional, cell-based; settings: MDA-MB-231, 24 h
HL-60 = assay: Cytotoxicity in human HL60 cells assessed as reduction in cell viability incubated for 24 hrs by MTT assay; format: functional, cell-based; settings: HL-60, 24 h
HL60/ADR = assay: Cytotoxicity in human HL60/ADR cells assessed as reduction in cell viability incubated for 24 hrs by MTT assay; format: functional, cell-based
A549 [1] = assay: Cytotoxicity in human A549 cells assessed as reduction in cell viability incubated for 72 hrs by CCK8 assay; format: functional, cell-based; settings: A549, 72 h
HeLa [2] = assay: Cytotoxicity in human HeLa cells assessed as reduction in cell viability incubated for 72 hrs by CCK8 assay; format: functional, cell-based
HepG2 [3] = assay: Cytotoxicity in human HepG2 cells assessed as reduction in cell viability incubated for 72 hrs by CCK8 assay; format: functional, cell-based; settings: HepG2, 72 h
PC-3 = assay: Cytotoxicity in human PC3 cells assessed as reduction in cell viability incubated for 72 hrs by CCK8 assay; format: functional, cell-based; settings: PC-3, 72 h
A549 [4] = assay: Cytotoxicity in human A549 cells assessed as reduction in cell viability incubated for 24 hrs by MTT assay; format: functional, cell-based; settings: A549, 24 h
MCF7 [5] = assay: Cytotoxicity in human MCF7 cells assessed as reduction in cell viability incubated for 24 hrs by MTT assay; format: functional, cell-based; settings: MCF7, 24 h
A549 [6] = assay: Cytotoxicity in human A549 cells assessed as reduction in cell viability incubated for 48 hrs by MTT assay; format: functional, cell-based; settings: A549, 48 h
[7] = Cytotoxicity in human SPCA2 cells assessed as reduction in cell viability incubated for 48 hrs by MTT assay; format: functional, cell-based; settings: SPCA2, 48 h
T-24 = assay: Cytotoxicity in human T24 cells assessed as reduction in cell viability incubated for 48 hrs by MTT assay; format: functional, cell-based; settings: T-24, 48 h
HUVEC = assay: Cytotoxicity in HUVEC cells assessed as reduction in cell viability incubated for 48 hrs by MTT assay; format: cell-based; settings: Homo sapiens
SGC-7901 = assay: Cytotoxicity in human SGC7901 cells assessed as reduction in cell viability incubated for 48 hrs by MTT assay; format: functional, cell-based; settings: SGC-7901, 48 h
HeLa [8] = assay: Cytotoxicity in human HeLa cells assessed as reduction in cell viability incubated for 48 hrs by MTT assay; format: functional, cell-based
HepG2 [9] = assay: Cytotoxicity in human HepG2 cells assessed as reduction in cell viability incubated for 48 hrs by MTT assay; format: functional, cell-based; settings: HepG2, 48 h
MCF7 [10] = assay: Cytotoxicity in human MCF7 cells assessed as reduction in cell viability; format: functional, cell-based
HepG2 [11] = assay: Cytotoxicity in human HepG2 cells assessed as reduction in cell viability incubated for 24 hrs by MTT assay; format: functional, cell-based; settings: HepG2, 24 h
MCF7 [12] = assay: Cytotoxicity in human MCF7 cells assessed as reduction in cell viability incubated for 72 hrs by CCK8 assay; format: functional, cell-based; settings: MCF7, 72 h
A-375 = assay: Cytotoxicity in human A375 cells assessed as reduction in cell viability incubated for 24 hrs by MTT assay; format: functional, cell-based; settings: A-375, 24 h
NCI-H446 = assay: Cytotoxicity in human NCI-H446 cells assessed as reduction in cell viability incubated for 24 hrs by MTT assay; format: functional, cell-based; settings: NCI-H446, 24 h
[13] = Cytotoxicity in human SPC-A1 cells assessed as reduction in cell viability incubated for 24 hrs by MTT assay; format: functional, cell-based; settings: SPCA1, 24 h
HT-29 = assay: Cytotoxicity in human HT-29 cells assessed as reduction in cell viability incubated for 72 hrs by MTT assay; format: functional, cell-based; settings: HT-29, 72 h
MCF7 [14] = assay: Cytotoxicity in human MCF7 cells assessed as reduction in cell viability incubated for 72 hrs by MTT assay; format: functional, cell-based; settings: MCF7, 72 h
HeLa [15] = assay: Cytotoxicity in human HeLa cells assessed as reduction in cell viability incubated for 72 hrs by MTT assay; format: functional, cell-based

COC(=O)[C@]12CCC(C)(C)C[C@H]1C1=CC(=O)[C@@H]3[C@@]4(C)CCC(=O)C(C)(C)[C@@H]4CC[C@@]3(C)[C@]1(C)CC2
IC50 (MDA-MB-231): 33.2 µM
IC50 (HL-60): 2.85 µM
IC50 (HL60/ADR): 7.54 µM

CC(=O)OC[C@@]1(C)[C@@H]2CC[C@]3(C)[C@H](CC=C4[C@@H]5[C@@H](C)[C@H](C)CC[C@]5(C(=O)O)CC[C@]43C)[C@@]2(C)C[C@@H](OC(C)=O)[C@@H]1OC(C)=O
IC50 (A549 [1]): 21.1 µM
IC50 (HeLa [2]): 24.2 µM
IC50 (HepG2 [3]): 10.2 µM
IC50 (PC-3): 17.5 µM

CC1(C)CC[C@]2(C(=O)O)CC[C@]3(C)C(=CC[C@@H]4[C@@]5(C)CC[C@H](O[C@@H]6OC[C@H](O[C@@H]7OC[C@H](O)[C@H](O)[C@H]7O)[C@H](O[C@H]7O[C@H](CO)[C@@H](O)[C@H](O)[C@@H]7O)[C@H]6O)[C@@](C)(CO)[C@@H]5CC[C@]43C)[C@H]2C1
IC50 (A549 [4]): 17.9 µM
IC50 (MCF7 [5]): > 50 µM

CCOP(=O)(OCC)C(NC(=O)[C@]12CC[C@@H](C)[C@H](C)[C@H]1C1=CC[C@@H]3[C@@]4(C)C[C@@H](OC(C)=O)[C@H](OC(C)=O)[C@@](C)(COC(C)=O)[C@@H]4CC[C@@]3(C)[C@]1(C)CC2)c1ccc(Cl)cc1 (some centres not stated)
IC50 (A549 [6]): 15.7 µM
IC50 [7]: 16.1 µM
IC50 (T-24): 8.93 µM
IC50 (HUVEC): > 100 µM

C[C@@H]1CC[C@]2(C(=O)OCC(=O)N/N=C/c3ccc(Cl)cc3)CC[C@]3(C)C(=CC(=O)[C@@H]4[C@@]5(C)CC[C@H](O)[C@](C)(CO)[C@@H]5CC[C@]43C)[C@@H]2[C@]1(C)O
IC50 (SGC-7901): > 100 µM
IC50 (HeLa [8]): > 100 µM
IC50 (HepG2 [9]): > 100 µM

C[C@H]1[C@H](C)CC[C@]2(C(N)=O)CC[C@]3(C)C(=CC[C@@H]4[C@@]5(C)CC[C@H](OC(=O)CCC(=O)O)C(C)(C)[C@@H]5CC[C@]43C)[C@H]12
IC50 (MCF7 [10]): 44.6 µM
IC50 (HepG2 [11]): 9.1 µM

CCOP(=O)(OCC)C(NC(=O)[C@]12CC[C@@H](C)[C@H](C)[C@H]1C1=CC[C@@H]3[C@@]4(C)C[C@@H](OC(C)=O)[C@H](OC(C)=O)[C@@](C)(COC(C)=O)[C@@H]4CC[C@@]3(C)[C@]1(C)CC2)c1ccc2ccccc2c1 (some centres not stated)
IC50 (A549 [6]): 46.3 µM
IC50 [7]: 48.7 µM
IC50 (T-24): 49.1 µM
IC50 (HUVEC): > 100 µM

COC(=O)C(C)NC(=O)[C@]12CC[C@@H](C)[C@H](C)[C@H]1C1=CC[C@@H]3[C@@]4(C)C[C@@H](O)[C@H](O)[C@@](C)(CO)[C@@H]4CC[C@@]3(C)[C@]1(C)CC2 (some centres not stated)
IC50 (A549 [1]): 21.8 µM
IC50 (HeLa [2]): 19.2 µM
IC50 (HepG2 [3]): 20.5 µM
IC50 (MCF7 [12]): 17.1 µM

C[C@H]1[C@H](C)CC[C@]2(C(N)=O)CC[C@]3(C)C(=CC[C@@H]4[C@@]5(C)CC[C@H](OC(=O)c6ccccc6)C(C)(C)[C@@H]5CC[C@]43C)[C@H]12
IC50 (MCF7 [10]): 44.6 µM
IC50 (HepG2 [11]): 8 µM

COC(=O)C(CO)NC(=O)[C@]12CC[C@@H](C)[C@@](C)(O)[C@H]1C1=CC(=O)[C@@H]3[C@@]4(C)CC[C@H](OC(C)=O)[C@](C)(COC(C)=O)[C@@H]4CC[C@@]3(C)[C@]1(C)CC2 (some centres not stated)
IC50 (A-375): 5.99 µM
IC50 (HepG2 [11]): 3.41 µM
IC50 (NCI-H446): 3.84 µM

CC(=O)OC[C@]1(C)[C@@H]2CC[C@]3(C)[C@H](C(=O)C=C4[C@H]5[C@](C(=O)OCC(=O)N/N=C/c6ccccc6)(CC[C@@H](C)[C@@]5(C)O)CC[C@]43C)[C@@]2(C)CC[C@@H]1OC(C)=O
IC50 [13]: 8.6 µM
IC50 (A-375): 3.1 µM
IC50 (NCI-H446): 11.7 µM

COC(=O)[C@]12CC[C@@H](C)[C@H](C)[C@H]1C1=CC(=O)[C@@H]3[C@@]4(C)C(C#N)=C[C@@](C)(COS(C)(=O)=O)[C@@H]4CC[C@@]3(C)[C@]1(C)CC2
IC50 (HT-29): 9.77 µM
IC50 (MCF7 [14]): 19.5 µM
IC50 (HeLa [15]): 7.27 µM

CCOP(=O)(OCC)C(NC(=O)[C@]12CC[C@@H](C)[C@H](C)[C@H]1C1=CC[C@@H]3[C@@]4(C)C[C@@H](OC(C)=O)[C@H](OC(C)=O)[C@@](C)(COC(C)=O)[C@@H]4CC[C@@]3(C)[C@]1(C)CC2)c1ccccc1Cl (some centres not stated)
IC50 (A549 [6]): 14.9 µM
IC50 [7]: 15 µM
IC50 (T-24): 6.59 µM
IC50 (HUVEC): > 100 µM

C[C@@H]1CC[C@]2(C(=O)OCC(=O)N/N=C/c3ccc([N+](=O)[O-])cc3)CC[C@]3(C)C(=CC(=O)[C@@H]4[C@@]5(C)CC[C@H](O)[C@](C)(CO)[C@@H]5CC[C@]43C)[C@@H]2[C@]1(C)O
IC50 (SGC-7901): 15.4 µM
IC50 (HeLa [8]): 18.8 µM
IC50 (HepG2 [9]): 8.74 µM

C[C@@H]1O[C@@H](O[C@H]2CC[C@@]3(C)[C@@H](CC[C@]4(C)[C@@H]3CC=C3[C@H]5CC(C)(C)CC[C@]5(C(=O)O)CC[C@]34C)[C@]2(C)CO)[C@H](O)[C@H](O)[C@H]1O[C@@H]1OC[C@H](O)[C@H](O)[C@H]1O
IC50 (A549 [4]): 17.3 µM
IC50 (MCF7 [5]): 42.1 µM

C[C@@H]1CC[C@]2(C(=O)NC(Cc3c[nH]c4ccccc34)C(=O)O)CC[C@]3(C)C(=CC(=O)[C@@H]4[C@@]5(C)CC[C@H](O)[C@](C)(CO)[C@@H]5CC[C@]43C)[C@@H]2[C@]1(C)O (some centres not stated)
IC50 (A-375): 8.03 µM
IC50 (HepG2 [11]): 6.11 µM
IC50 (NCI-H446): 11.3 µM

CC(=O)O[C@H]1CC[C@]2(C)[C@H]3CC=C4[C@@H]5[C@@H](C)[C@H](C)CC[C@]5(C(=O)NCCCCC(C)N)CC[C@@]4(C)[C@]3(C)CC[C@H]2C1(C)C (some centres not stated)
IC50 (MCF7 [10]): 4.8 µM
IC50 (HepG2 [11]): 5 µM

C[C@@H]1O[C@@H](O[C@@H]2[C@@H](O)[C@H](O[C@H]3CC[C@@]4(C)[C@@H](CC[C@]5(C)[C@@H]4CC=C4[C@H]6CC(C)(C)CC[C@]6(C(=O)O)CC[C@]45C)[C@]3(C)CO)OC[C@@H]2O[C@H]2O[C@H](CO)[C@@H](O)[C@H](O)[C@@H]2O)[C@H](O)[C@@H](O)[C@H]1O
IC50 (A549 [4]): 19.6 µM
IC50 (MCF7 [5]): > 50 µM

CC(=O)OC[C@]1(C)[C@@H]2CC[C@]3(C)[C@H](C(=O)C=C4[C@H]5[C@](C(=O)OCC(=O)N/N=C/c6ccc(C)cc6)(CC[C@@H](C)[C@@]5(C)O)CC[C@]43C)[C@@]2(C)CC[C@@H]1OC(C)=O
IC50 [13]: 7.4 µM
IC50 (A-375): 6.5 µM
IC50 (NCI-H446): 15 µM

CCCC(=O)OC[C@]1(C)C=C(C=O)[C@@]2(C)[C@H]1CC[C@]1(C)[C@@H]2C(=O)C=C2[C@@H]3[C@@H](C)[C@H](C)CC[C@]3(C(=O)OC)CC[C@]21C
IC50 (HT-29): 0.77 µM
IC50 (MCF7 [14]): 0.88 µM
IC50 (HeLa [15]): 0.49 µM

C[C@@H]1O[C@@H](O[C@H]2CC[C@@]3(C)[C@@H](CC[C@]4(C)[C@@H]3CC=C3[C@H]5CC(C)(C)CC[C@]5(C(=O)O)CC[C@]34C)[C@]2(C)CO)[C@H](O)[C@H](O)[C@H]1O[C@@H]1O[C@H](CO)[C@@H](O)[C@H](O)[C@H]1O
IC50 (A549 [4]): 17.8 µM
IC50 (MCF7 [5]): 41.3 µM

CCOP(=O)(OCC)C(NC(=O)[C@]12CC[C@@H](C)[C@H](C)[C@H]1C1=CC[C@@H]3[C@@]4(C)C[C@@H](OC(C)=O)[C@H](OC(C)=O)[C@@](C)(COC(C)=O)[C@@H]4CC[C@@]3(C)[C@]1(C)CC2)c1cccc2ccccc12 (some centres not stated)
IC50 (A549 [6]): 54.8 µM
IC50 [7]: 46.1 µM
IC50 (T-24): 43.8 µM
IC50 (HUVEC): > 100 µM

COc1ccc(/C=N/NC(=O)COC(=O)[C@]23CC[C@@H](C)[C@@](C)(O)[C@H]2C2=CC(=O)[C@@H]4[C@@]5(C)CC[C@H](O)[C@](C)(CO)[C@@H]5CC[C@@]4(C)[C@]2(C)CC3)cc1
IC50 (SGC-7901): 11.3 µM
IC50 (HeLa [8]): 8.54 µM
IC50 (HepG2 [9]): 4.16 µM

O=c1[nH]cc(F)c(=O)[nH]1 [FLUOROURACIL]
IC50 (A549 [6]): 34.5 µM
IC50 [7]: 44.3 µM
IC50 (T-24): 40.1 µM
IC50 (HUVEC): 56 µM
